Values joined by “and” are separate entries in the source; they are usually repeats but may differ in a detail not shown here. Equal values may be shown once. “Also recorded” adds a separate entry of the source. Read-outs that look alike come from different tables or passages of the source.
Tests used:
[1] = Distribution coefficient analysis (LogD7.4), n-octanol/PBS; format: physicochemical
Method: Radioligand [^18F]2 (0.03 MBq, 1 μL, in EtOH) was mixed with PBS (500 μL) and n-octanol (500 μL). The sample was vortexed (10 min) followed by centrifugation (1×g, 10 min). Three aliquots (100 μL) from each layer were taken and counts measured using a 2480 WIZARD2 Automatic Gamma Counter (PerkinElmer, UK). Experiment was repeated in triplicate in n = 3 determinations (supporting information, Additional file 1: Table S1). Distribution coefficient (LogD7.4) was calculated as the logarithm of the ratio between CPM of the octanol and buffer phase.

T47D cells = experiment: Cell uptake study of radioligand in breast cancer cell lines; format: cell-based, human
Method: T47D, MCF-7 and MDA-MB-231 cells (1 × 10^5) were plated into 6-well plates and used for receptor binding assays at 60–80% confluence. Cell medium was removed and cells were washed with cold PBS buffer. [^18F]2 (37 kBq/mL) was added to individual wells and cells were incubated at 37 °C in a humidified atmosphere of 5% CO2 for 60 min. Cells were co-incubated with 0.01–1 μM of cold progesterone for the blocking study. Cells were then washed 3 times with ice-cold PBS and lysed with RIPA buffer. Radioactivity was determined using a gamma spectrometer (Automatic Gamma counter, Wizard 3 Wallac). Radioactivity was normalised to protein content determined using a BCA 96-well plate assay (Thermo Fisher Scientific Inc., USA) and expressed as a percentage of total radioactivity per mg of protein.

[2] = Ex vivo biodistribution in C57BL/6 female mice; conditions: 50 min p.i.
Method: Pubertal female C57BL/6 mice were injected intraperitoneally with 30 IU gonadotropins, 15 IU Follicle-stimulating hormone (FSH) and 15 IU luteinizing hormone (LH) followed by 5 IU […] (hCG) after 48 h (Sigma-Aldrich, Gillingham, UK). After the imaging studies, the ovaries were removed and snap-frozen in liquid nitrogen for later analysis of protein expression by western blot.
[^18F]2 (455 ± 62 kBq) was injected into the tail vail of female C57BL/6 mice. Whilst under anaesthesia the animals were sacrificed and tissues of interest such as, heart, lung, liver, spleen, kidneys, stomach, muscle, bone, ovary, small intestines and large intestines were collected in pre-weighed counting tubes. Radioactivity within tissue samples was counted in a gamma spectrometer (Automatic Gamma Counter, Wizard 3 Wallac), and then weighed to determine the mass of the tissue. CPM for each tissue sample was normalised to the total injected dose of radioactivity to the animal to give %ID (injected dose), and then normalised to the weight of the counted tissue to give the radioactivity uptake of the tissue as %ID/g. Tabulated values shown in Additional file 1: Table S2.

[3] = Dynamic PET/CT imaging in C57BL/6 female mice; format: in vivo; conditions: PET images acquired over 50 min
Method: Mice were anaesthetised with 3–5% isoflurane at a flow rate of 1 L/min, and then reduced to 1.5–2% isoflurane for anaesthesia maintenance during imaging. [^18F]2 was injected via the tail vein at the commencement of a dynamic PET scan using a dedicated small animal PET/CT scanner (Sedecal SuperArgus2R, Sedecal, Spain). Images were acquired over a 50 min imaging sequence, followed by CT imaging acquired in 514 projections for anatomic coregistration. PET emission data were corrected for decay and dead time and reconstructed using 3D-OSEM. Data were analysed based on regions of interest (ROI) drawn within the tumours and tissue. Time-activity curves (TAC) were calculated as an average form the region of interest analysis of three mice (Additional file 1: Figure S34). Data was analysed using AMIDE software (Loening and Gambhir, [2003]) and VivoQuant (InVicro, MA, USA) and regions of interest (ROIs) were selected by hand, and the count densities were averaged for each frame to obtain a TAC for each ROI.

[4] = In vitro radioactive metabolite analysis in mouse liver microsomes; format: in vitro ADME; conditions: MLM, 60 min, radio-HPLC integration
Method: Radioligand [^18F]2 (3 MBq, ca. 80 μL), mouse liver microsomes (50 μL, 1 mg/mL), NADPH regeneration system A (50 μL), NADPH regeneration system B (10 μL), PBS 0.5 M pH 7.5 (200 μL) and water (ca. 200 μL) were added to a plastic 1.5 mL tube. The mixture was incubated at 37 °C for 60 min and transferred into a plastic centrifuge tube (10 mL). Proteins were precipitated with ice-cold MeOH (2 mL) and the mixture was centrifuged (12,000 g, 3 min) to pellet the precipitate. The supernatant was removed, evaporated to dryness and the residue was suspended in 37% MeCN + 0.1%TFA / 63% Water + 0.1%TFA for RP-HPLC using gradient 3 (supporting information, section 10.3). The experiment was performed in n = 3 determinations. Extraction efficiency of radioactivity from the protein pellet was calculated to be 93.5% ± 1.6 (Additional file 1: Table S3). HPLC data is shown in the supporting information (Additional file 1: Figure S35).

[5] = Stability of formulated radioligand; format: physicochemical; conditions: up to 4 h after formulation; 10% (v/v) EtOH/PBS
[6] = PR-induced (PR+, gonadotropin stimulated) mice, mean ± SEM

For CC1(C)OC(=S)Nc2ccc(-c3cccnc3[18F])cc21 [[^18F]2], the logD ([1]; pH 7.4, PBS (pH 7.4) / octan-1-ol, three repeats in triplicate, read-out: Distribution coefficient (LogD7.4), mean ± SD) was 1.69 ± 0.1, the logD ([1]; pH 7.4, single measurements (Run 1-3, a-c), read-out: LogD7.5) was 1.67 and the “Uptake of radioligand in cell lines” value (T47D cells; T47D (PR++) compared to MCF7 (PR+) and MDA-MB-231 (PR-), 60 min, 37 °C) was “significant accumulation in T47D cells”. For the same compound, the “Uptake in T47D cells on co-incubation with progesterone (blocking)” value (T47D cells; T47D cells, progesterone 0.01–0.1 μM) was “decreased in a dose-dependent manner”, the “Bone uptake ratio, gonadotropin-stimulated vs control mice” value [2] was 2 fold and the “Biodistribution, blood” value [2, 6] was 1.30 ± 0.30 %ID/g. For the same compound, the “Biodistribution, bone” value [2, 6] was 31.21 ± 5.99 %ID/g, the “Biodistribution, brain” value [2, 6] was 0.40 ± 0.09 %ID/g and the “Biodistribution, heart” value [2, 6] was 1.47 ± 0.31 %ID/g. For the same compound, the “Biodistribution, kidney” value [2, 6] was 3.89 ± 1.26 %ID/g, the “Biodistribution, large intestine” value [2, 6] was 13.25 ± 1.70 %ID/g and the “Biodistribution, liver” value [2, 6] was 14.48 ± 4.91 %ID/g. For the same compound, the “Biodistribution, lungs” value [2, 6] was 1.33 ± 0.28 %ID/g, the “Biodistribution, muscle” value [2, 6] was 1.55 ± 0.44 %ID/g and the “Biodistribution, small intestine” value [2, 6] was 36.08 ± 1.21 %ID/g. For the same compound, the “Biodistribution, spleen” value [2, 6] was 0.15 ± 0.06 %ID/g, the “Biodistribution, stomach” value [2, 6] was 3.41 ± 0.26 %ID/g and the “Biodistribution, urine” value [2, 6] was 12.93 ± 12.56 %ID/g. For the same compound, the “Biodistribution, blood” value ([2]; control (PR-) mice, mean ± SEM) was 0.01 ± 0.000 %ID/g, the “Biodistribution, bone” value ([2]; control (PR-) mice, mean ± SEM) was 15.37 ± 3.47 %ID/g and the “Biodistribution, brain” value ([2]; control (PR-) mice, mean ± SEM) was 0.41 ± 0.09 %ID/g. The “Biodistribution, heart” value ([2]; control (PR-) mice, mean ± SEM) was 1.40 ± 0.33 %ID/g, the “Biodistribution, kidney” value ([2]; control (PR-) mice, mean ± SEM) was 4.02 ± 1.18 %ID/g and the “Biodistribution, large intestine” value ([2]; control (PR-) mice, mean ± SEM) was 1.30 ± 0.07 %ID/g. The “Biodistribution, liver” value ([2]; control (PR-) mice, mean ± SEM) was 6.19 ± 1.74 %ID/g, the “Biodistribution, lungs” value ([2]; control (PR-) mice, mean ± SEM) was 1.28 ± 0.35 %ID/g and the “Biodistribution, muscle” value ([2]; control (PR-) mice, mean ± SEM) was 0.91 ± 0.19 %ID/g. The “Biodistribution, ovary” value ([2]; control (PR-) mice, mean ± SEM) was 1.32 ± 0.22 %ID/g, the “Biodistribution, small intestine” value ([2]; control (PR-) mice, mean ± SEM) was 30.49 ± 3.05 %ID/g and the “Biodistribution, spleen” value ([2]; control (PR-) mice, mean ± SEM) was 0.99 ± 0.28 %ID/g. For the same compound, the “Biodistribution, stomach” value ([2]; control (PR-) mice, mean ± SEM) was 0.73 ± 0.17 %ID/g, the “Biodistribution, urine” value ([2]; control (PR-) mice, mean ± SEM) was 10.94 ± 8.40 %ID/g and the “Distribution of radioactivity in PET images” value [3] was “Extensive skeletal uptake; also recorded: accumulation of radioactivity in the liver and small intestines, but also in the spine, joints and skull”. The “[^18F]2 parent (Rt = ca 12:21 min:sec), single run” value ([4]; individual runs / representative chromatogram) was 33.3% and 36.3% and 36.6%, the “[^18F]2 parent (Rt = ca 12:21 min:sec), mean ± SD” value ([4]; n = 3) was 35.4 ± 1.8% and the Stability after formulation [5] was 99.7%.
